# From patent US20130101582A1, “Tiki1 and Tiki2, Wnt Inhibitors” (CHILDREN'S MEDICAL CENTER CORPORATION, priority 2010, published 2013)
# B1: KrmN: control recombinant protein, ectodomain of the transmembrane Kremen protein (protein, UniProt Q8NCW0 26-364, looked up)
# extracellular domain: GSLHSPGLSECFQVNGADYRGHQNRTGPRGAGRPCLFWDQTQQHSYSSASDPHGRWGLGAHNFCRNPDGDVQPWCYVAETEEGIYWRYCDIPSCHMPGYLGCFVDSGAPPALSGPSGTSTKLTVQVCLRFCRMKGYQLAGVEAGYACFCGSESDLARGRLAPATDCDQICFGHPGQLCGGDGRLGVYEVSVGSCQGNWTAPQGVIYSPDFPDEYGPDRNCSWALGPPGAALELTFRLFELADPRDRLELRDAASGSLLRAFDGARPPPSGPLRLGTAALLLTFRSDARGHAQGFALTYRGLQDAAEDPEAPEGSAQTPAAPLDGANVSCSPRPGAPPAA
# modifications: extracellular domain
# B2: Tiki2NΔ: deletion mutant lacking a segment of the Tiki domain, inactive in modifying WNT3A (protein)
# chain: RPQPPDGGQCRPPGSQRDLNSFLWTIRRDPPAYLFGTIHVPYTRVWDFIPDNSKAAFQASTRVYFELDLTDPYTISALASCQLLPHGENLQDVLPHELYWRLKRHLDYVKLMMPSWMTPAQRGKGLYADYLFNAIAGNWERKRPVWVMLMVNSLTERDVRFRGVPVLDLYLAQQAEKMKKTTGAVEQVEEQCHPLNNGLNFSQVLFALNQTLLQQESVRAGSLQASYTTEDLIKHYNCGDLSAVIFNHDTSQLPNFINTTLPPHEQVTAQEIDSYFRQELIYKRNERMGKRVMALLRENEDKICFFAFGAGHFLGNNTVIDILRQAGLEVDHTPAGQAIHSPAPQSPAPSPEGTSTSPAPVTPAAAVPEAPSVTPTAPPEDEDPALSPHLLLPDSLSQLEEFGRQRKWHKRQSTHQRPRQFNDLWVRIEDSTTASPPPLPLQPTHSSGTAKPPFQLSDQLQQQDPPG
# modifications: left off: small tags and cut ends
# B3: Human Tiki1: Human Tiki1 (Q86V40/LOC129293) (SEQ ID NO:1), expressed by transfection (protein, listed as Homo sapiens)
# chain: MSPWSWFLLQTLCLLPTGAASRRGAPGTANCELKPQQSELNSFLWTIKRDPPSYFFGTIHVPYTRVWDFIPDNSKEAFLQSSIVYFELDLTDPYTISALTSCQMLPQGENLQDVLPRDIYCRLKRHLEYVKLMMPLWMTPDQRGKGLYADYLFNAIAGNWERKRPVWVMLMVNSLTEVDIKSRGVPVLDLFLAQEAERLRKQTGAVEKVEEQCHPLNGLNFSQVIFALNQTLLQQESLRAGSLQIPYTTEDLIKHYNCGDLSSVILSHDSSQVPNFINATLPPQERITAQEIDSYLRRELIYKRNERIGKRVKALLEEFPDKGFFFAFGAGHFMGNNTVLDVLRREGYEVEHAPAGRPIHKGKSKKTSTRPTLSTIFAPKVPTLEVPAPEAVSSGHSTLPPLVSRPGSADTPSEAEQRFRKKRRRSQRRPRLRQFSDLWVRLEESDIVPQLQVPVLDRHISTELRLPRRGHSHHSQMVASSACLSLWTPVFWVLVLAFQTETPLL
# Key:
# Tiki1 expression = test: Regulation of Tiki1 and Dkk1 expression by maternal Wnt signaling, RT-PCR; type: in vivo; conditions: Xenopus embryos, RT-PCR at stage 10.5
# Experimental: FIG. 3C is a gel showing that Tiki1 expression is regulated by maternal Wnt signaling. Whole embryos were used for LiCl or UV treatment. 20 or 40 pg of Xwnt8 mRNA was injected into ventral marginal zone (VMZ) at 4 to 8-cell stage and VMZ was dissected at stage 10.5 for RT-PCR. ΔNTCF mRNA (1 or 2 ng) was injected into dorsal marginal zone (DMZ) at 4 to 8-cell stage and DMZ was dissected at stage 10.5 for RT-PCR. Con: control.
# SO formation requires maternal Wnt/β-catenin signaling (De Robertis, E. M. et al., Annu Rev Cell Dev Biol 20, 285-308 (2004); Harland, R. et al., Annu Rev Cell Dev Biol 13, 611-667 (1997)), which we found is necessary and sufficient for Tiki1 (and Dkk1) expression.
# [1] = test system: Xenopus Tiki1 protein synthesis; test: Tiki1 protein synthesis in embryos with morpholino, Western blotting of animal caps; type: in vivo
# Experimental: FIG. 4A is a gel showing that Xenopus Tiki1 protein synthesis is specifically targeted by an antisense morpholino oligonucleotide (MO). 500 pg mRNA for Tiki1-FLAG (targeted by MO) or HA-Tiki1 (resistant to MO) were injected with or without the Tiki1MO (5, 10, 20, 40 ng) into the animal pole at the 2-cell stage, and animal caps were dissected at stage 10 for Western blotting.
# (§1) 20 ng of Tiki1MO was injected into two dorsal blastomeres of 8-cell stage embryos.
# Xenopus embryos [2] = test: Organizer gene expression in morpholino-injected whole Xenopus embryos (Table 1); type: in vivo; set-up: Whole embryos displaying change in gene expression: Reduced, Percentage (%): concentration or dose not given beside the values
# Experimental: (§2) A functional cDNA expression screen was performed using arrayed Xenopus cDNAs to identify novel genes involved in AP patterning and Wnt signaling. Procedures for embryo manipulation, reverse transcription PCR and in situ hybridization were performed as previously described (Tamai, K. et al., Nature 407, 530-535 (2000)). The Arrayed Xenopus tropicalis full length cDNAs were used for the screening as performed previously (Kato, Y. et al., Nature 418, 641-646 (2002)). cDNA pools (in the CS107 vector) that contain 96 independent clones were transcribed in vitro using SP6 polymerase, and the resulting mRNA pools were injected into the dorsal side of the embryo at 4-cell stage at the dose of 10 ng RNA/embryo. Injected embryos were scored at stage 30-31 for enlarged or diminished anterior development. The positive pools were divided into smaller pools and the same process was repeated until a single cDNA was identified.
# HA-Tiki1 mRNA injection rescued the effect of Tiki1MO on all head organizer genes examined (Table 1).
# Xenopus embryos [3] = test: Anterior neural marker expression in morpholino-injected whole embryos (Table 2); type: in vivo; conditions: stage 16
# Experimental: as §2
# The specific expression in and the requirement for the formation of the head organizer imply Tiki1 function in anterior neural patterning. Tiki1MO was injected with fluorescein dextran (FLD, as a lineage tracer) into one dorsal-animal blastomeres at the 8-cell stage and analyzed expression of anterior neural markers at stage 16. Tiki1 MO suppressed the expression of, in the injected half of the embryo, forebrain marker BF1 and Otx2 (Table 2). […] HA-Tiki1 mRNA injection rescued the expression of BF1, Otx2, and En2 in Tiki1MO-injected embryos (Table 2).
# Xenopus embryos [4] = test: Tiki1MO anterior development/head formation phenotype; type: in vivo; conditions: 20 ng injected into two dorsal blastomeres of 8-cell stage embryos
# Experimental: as §1
# [5] = target: Recombinant human WNT3A protein (Homo sapiens, UniProt P56704); test: In vitro incubation of recombinant WNT3A with purified protein, Triton X-114 phase separation; type: biochemical; conditions: purified protein incubated with recombinant human WNT3A
# Experimental: FIG. 6G is a gel showing that recombinant WNT3A was incubated with Krm2N or Tiki2N purified from WCL (top) or from CM (bottom) and was subjected to Triton X-114 phase separation.
# FIG. 6H is a gel showing that Recombinant WNT3A was incubated with Krm2N or Tiki2N or Tiki2NΔ. purified from WCL and was subjected to Triton X-114 phase separation.
# Recombinant human Tiki2N, which is the ectodomain harboring the conserved Tiki domain (FIG. 6J), was purified, via tandem affinity procedures from HEK293T cell extracts or CM.
# Wnt3a signaling = test: TOPFLASH reporter assay, Wnt3a co-transfected with Tiki1 or Tiki2 in HEK293T cells; type: cell-based, human
# Excerpt: Wnt3a and Tiki1 or Tiki2 were co-transfected. The TOPFLASH reading (normalized to Renilla) in Wnt3a alone was set as 100. DNA transfection amounts are shown per well in a standard 24-well plate format. Representative data from one of three independent experiments is shown.
# The enlarged head phenotype by Tiki1 overexpression is indistinguishable from that by overexpression of Dkk1, a Wnt/LRP6 antagonist (MacDonald, B. T. et al., Dev Cell 17, 9-26 (2009); Glinka, A. et al., Nature 391, 357-362 (1998)). […] Thus Tiki1 likely acts at or upstream of Wnt receptors. […] Xenopus Tiki2, and human Tiki1 and Tiki2 also behaved as Wnt antagonists in Xenopus embryos, HEK293T cells (FIG. 2C) and mouse L cells (FIG. 5A).
# [6] = gene Chd, stage 10.5, injected in two dorsal blastomeres at 8-cell stage
# [7] = gene Gsc st.13 (prechordal plate, neurula stage)
# Chain of Recombinant human WNT3A protein (P56704 19-352): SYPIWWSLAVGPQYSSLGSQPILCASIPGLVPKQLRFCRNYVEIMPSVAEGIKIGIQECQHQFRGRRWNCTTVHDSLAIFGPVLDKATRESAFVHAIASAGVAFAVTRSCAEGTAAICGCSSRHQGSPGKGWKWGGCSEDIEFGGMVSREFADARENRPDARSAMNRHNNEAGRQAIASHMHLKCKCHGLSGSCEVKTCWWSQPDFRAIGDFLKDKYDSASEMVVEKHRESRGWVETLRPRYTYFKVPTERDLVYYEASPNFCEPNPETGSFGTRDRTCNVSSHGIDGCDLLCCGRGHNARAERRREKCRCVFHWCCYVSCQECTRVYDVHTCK
molecule,measurement,setting,value
[Cl-].[Li+] [LiCl],Tiki1 and Dkk1 expression,Tiki1 expression,induced Tiki1 and Dkk1 expression
"Tiki1 MO: morpholino antisense oligonucleotide against Tiki1, 5′-CCAAATGATTACCATCATAGCTCAG-3′ (SEQ ID NO:13) (all phosphorodiamidate morpholino (PMO))",Synthesis of HA-Tiki1,[1]; HA-Tiki1 mRNA lacks the MO complementary sequence,unable to block the synthesis
same,Synthesis of exogenously expressed Tiki1 (Tiki1-FLAG),"[1]; Tiki1-FLAG mRNA targeted by MO, animal caps stage 10",specifically blocked the synthesis
same,"Whole embryos displaying change in gene expression: Absent, Percentage (%)",Xenopus embryos [2]; [6],0%
same,"Whole embryos displaying change in gene expression: NC (No Change), Percentage (%)",Xenopus embryos [2]; [6],64%
same,"Whole embryos displaying change in gene expression: Reduced, Percentage (%)",Xenopus embryos [2]; [6],36%
same,"Whole embryos displaying change in gene expression: Absent, Percentage (%)","Xenopus embryos [2]; gene Dkk1, stage 10.5",25%
same,"Whole embryos displaying change in gene expression: NC (No Change), Percentage (%)","Xenopus embryos [2]; gene Dkk1, stage 10.5",35%
same,"Whole embryos displaying change in gene expression: Reduced, Percentage (%)","Xenopus embryos [2]; gene Dkk1, stage 10.5",40%
same,"Whole embryos displaying change in gene expression: Absent, Percentage (%)",Xenopus embryos [2]; [7],35%
same,"Whole embryos displaying change in gene expression: NC (No Change), Percentage (%)",Xenopus embryos [2]; [7],33%
same,"Whole embryos displaying change in gene expression: Reduced, Percentage (%)",Xenopus embryos [2]; [7],32%
same,"Whole embryos displaying change in gene expression: Absent, Percentage (%)","Xenopus embryos [2]; gene Gsc, stage 10.5",0%
same,"Whole embryos displaying change in gene expression: NC (No Change), Percentage (%)","Xenopus embryos [2]; gene Gsc, stage 10.5",34%
same,"Whole embryos displaying change in gene expression: Reduced, Percentage (%)","Xenopus embryos [2]; gene Gsc, stage 10.5",66%
same,"Whole embryos displaying change in gene expression: Absent, Percentage (%)","Xenopus embryos [2]; gene Lim1, stage 10.5",28%
same,"Whole embryos displaying change in gene expression: NC (No Change), Percentage (%)","Xenopus embryos [2]; gene Lim1, stage 10.5",18%
same,"Whole embryos displaying change in gene expression: Reduced, Percentage (%)","Xenopus embryos [2]; gene Lim1, stage 10.5",54%
same,"Whole embryos displaying change in gene expression: Absent, Percentage (%)","Xenopus embryos [2]; gene Otx2, stage 10.5",7%
same,"Whole embryos displaying change in gene expression: NC (No Change), Percentage (%)","Xenopus embryos [2]; gene Otx2, stage 10.5",33%
same,"Whole embryos displaying change in gene expression: Reduced, Percentage (%)","Xenopus embryos [2]; gene Otx2, stage 10.5",60%
same,"Whole embryos displaying change in gene expression: Absent, Percentage (%)","Xenopus embryos [2]; gene Xnot, stage 10.5",0%
same,"Whole embryos displaying change in gene expression: NC (No Change), Percentage (%)","Xenopus embryos [2]; gene Xnot, stage 10.5",87%
same,"Whole embryos displaying change in gene expression: Reduced, Percentage (%)","Xenopus embryos [2]; gene Xnot, stage 10.5",13%
same,"Whole embryos displaying change in gene expression: Absent, Percentage (%)","Xenopus embryos [2]; gene Xnr3, stage 10.5",0%
same,"Whole embryos displaying change in gene expression: NC (No Change), Percentage (%)","Xenopus embryos [2]; gene Xnr3, stage 10.5",93%
same,"Whole embryos displaying change in gene expression: Reduced, Percentage (%)","Xenopus embryos [2]; gene Xnr3, stage 10.5",7%
same,"Whole embryos displaying change in gene expression: NC (No Change), Percentage (%)",Xenopus embryos [3]; gene BF1,14%
same,"Whole embryos displaying change in gene expression: Reduced, Percentage (%)",Xenopus embryos [3]; gene BF1,23%
same,"Whole embryos displaying change in gene expression: increased, Percentage (%)",Xenopus embryos [3]; gene BF1,0%
same,"Whole embryos displaying change in gene expression: Absent, Percentage (%)","Xenopus embryos [3]; gene BF1, injected into one dorsal-animal blastomere at 8-cell stage",63%
same,"Whole embryos displaying change in gene expression: Absent, Percentage (%)",Xenopus embryos [3]; gene En-2,40%
same,"Whole embryos displaying change in gene expression: NC (No Change), Percentage (%)",Xenopus embryos [3]; gene En-2,35%
same,"Whole embryos displaying change in gene expression: Reduced, Percentage (%)",Xenopus embryos [3]; gene En-2,25%
same,"Whole embryos displaying change in gene expression: increased, Percentage (%)",Xenopus embryos [3]; gene En-2,0%
same,"Whole embryos displaying change in gene expression: Absent, Percentage (%)",Xenopus embryos [3]; gene HoxB9,0%
same,"Whole embryos displaying change in gene expression: NC (No Change), Percentage (%)",Xenopus embryos [3]; gene HoxB9,100%
same,"Whole embryos displaying change in gene expression: Reduced, Percentage (%)",Xenopus embryos [3]; gene HoxB9,0%
same,"Whole embryos displaying change in gene expression: increased, Percentage (%)",Xenopus embryos [3]; gene HoxB9,0%
same,"Whole embryos displaying change in gene expression: Absent, Percentage (%)",Xenopus embryos [3]; gene Otx2,35%
same,"Whole embryos displaying change in gene expression: NC (No Change), Percentage (%)",Xenopus embryos [3]; gene Otx2,35%
same,"Whole embryos displaying change in gene expression: Reduced, Percentage (%)",Xenopus embryos [3]; gene Otx2,30%
same,"Whole embryos displaying change in gene expression: increased, Percentage (%)",Xenopus embryos [3]; gene Otx2,0%
same,Injected embryos that developed anterior defects,Xenopus embryos [4],roughly 50%
B1,Partitioning of WNT3A in Triton X-114 phase separation after in vitro incubation,[5],remained in the detergent phase
B2,Partitioning of WNT3A in Triton X-114 phase separation after in vitro incubation,[5],remained in the detergent phase
B3,"Wnt3a signaling, TOPFLASH reporter",Wnt3a signaling,inhibit Wnt3a signaling
